Experimental data as given in publication PMC3468358, “Clinical, virological and biochemical evidence supporting the association of HIV-1 reverse transcriptase polymorphism R284K and thymidine analogue resistance mutations M41L, L210W and T215Y in patients failing tenofovir/emtricitabine therapy” (Retrovirology, 2012).

Key:
[1] = tested on: HIV-1 construct with RT M41L/L210W/T215Y; experiment: Phenotypic drug susceptibility of recombinant HIV-1 in MT-4 cells (tetrazolium-based colorimetric method); format: cell-based
Method: (§1) Site-directed mutagenesis was carried out with the Quik-Change Site-Directed Mutagenesis kit (Stratagene) by following the manufacturer’s instructions, and using plasmids p66RTB [64] or p66RTB(LY) as templates. The plasmid p66RTB contains the nucleotide sequence encoding for the 66-kDa subunit of HIV-1BH10 RT, and p66RTB(LY) encodes a p66 derivative with thymidine analogue resistance mutations M41L and T215Y. […] All introduced mutations were confirmed by DNA sequencing. Recombinant HIV-1 was obtained as previously described. […] MT-4 cells were used to propagate the recombinant virus. The nucleotide sequence of the RT-coding region was fully determined in order to check for reversions or undesired mutations. MT-4 cells and the deleted HXB2-D clone were obtained from the AIDS Reagent Program (Medical Research Council).
(§2) Viable cells at different drug concentrations were quantified with a tetrazolium-based colorimetric method. Replication kinetics of wild-type and mutant viruses were assayed by infecting peripheral blood mononuclear cells (PBMCs) (mixed from two healthy donors), previously stimulated with phytohemagglutinin and interleukin 2 [26]. In these assays, viral replication rates were obtained from the amounts of HIV-1 p24^Gag antigen produced during the exponential phase of viral growth, as described previously. Growth competition assays in MT-4 cells were carried out as previously described, in the absence and in the presence of tenofovir disoproxil fumarate at concentrations ranging from 5 to 80 nM. A multiplicity of infection of 0.001 was used and competing viruses were mixed at a 50:50 ratio. RT inhibitors were obtained from the NIH AIDS Research and Reference Reagent Program.

[2] = tested on: wild-type HXB2 virus carrying the RT sequence of BH10; experiment: as above; format: cell-based; details: Human immunodeficiency virus 1, HXB2, MT4, WT virus, average ± SD of at least three tests
Method: as §1, §2

[3] = tested on: HIV-1 construct with RT R284K; experiment: as above; format: cell-based
Method: as §1, §2

[4] = tested on: HIV-1 construct with RT M41L/L210W/T215Y/R284K; experiment: as above; format: cell-based
Method: as §1, §2

WT HIV-1 RT (BH10) [5] = biological target: T1, WT HIV-1 RT (BH10) (Human immunodeficiency virus type 1 group M subtype B, UniProt P03366); experiment: Inhibition constants under steady-state nucleotide incorporation conditions; format: biochemical; details: competition with dATP, template-primer D38T/25PGA, read-out: Ki(Tenofovir-DP)
T1 construct: His6 (C); made in house; host or cells: E. coli XL1 Blue
Method: (§3) RTs were expressed in E. coli XL1 Blue and purified as p66/p51 heterodimers by ionic exchange, followed by immobilized metal affinity chromatography on Ni^2+-nitriloacetic acid-agarose. The p66 subunit was obtained with a His6 tag at its C-terminal end to facilitate its purification by metal affinity chromatography. Purity of the enzymes was assessed by SDS-polyacrylamide gel electrophoresis and RT concentrations were determined by active site titration as described.
(§4) Nucleotide incorporation reactions under steady-state conditions were carried out as previously described. However, in the preincubation buffer, active RT and template-primers D38/25PGA or D38T/25PGA were present at concentrations of 7–20 nM and 60 nM, respectively. Elongation rates were determined with dTTP concentrations ranging from 0.05 to 20 μM or with dATP concentrations ranging from 12 nM to 10 μM, using reaction volumes of 20 μl. Catalytic constants kcat and Km were determined after fitting the elongation data to the Michaelis–Menten equation as described. Inhibition constants (Ki) for AZTTP and tenofovir-DP were determined under the conditions used for obtaining the catalytic constants of dTTP and dATP incorporation, respectively. In order to distinguish between dTTP and AZTTP, elongation reactions were carried out under conditions that allowed the incorporation of two nucleotides (i.e. T at position +1 and A at position +2). For this purpose dATP was supplied at 1 μM in all assays. The competition between tenofovir-DP and dATP was analyzed with template-primer D38T/25PGA. Assays were carried out with variable concentrations of dATP (as indicated above) and 2 μM dTTP to facilitate further extension of the primer when the inhibitor was not incorporated at position +1 of the DNA primer. Data were analyzed by using Lineweaver-Burk plots. Nucleotide incorporation reactions under pre-steady-state conditions were carried out with template-primer D38/25PGA, as described.

[6] = biological target: T2, HIV-1 RT M41L/L210W/T215Y (Human immunodeficiency virus type 1 group M subtype B, UniProt P03366, L809W/M640L/T814Y); experiment: as above; format: biochemical; details: M41L/L210W/T215Y RT, competition with dATP, template-primer D38T/25PGA; read-out: Ki(Tenofovir-DP)
T2 construct: His6 (C); made in house; host or cells: E. coli XL1 Blue
Method: as §3, §4

[7] = biological target: T3, HIV-1 RT M41L/L210W/T215Y/R284K (Human immunodeficiency virus type 1 group M subtype B, UniProt P03366, L809W/M640L/R883K/T814Y); experiment: as above; format: biochemical; details: M41L/L210W/T215Y/R284K RT, competition with dATP, template-primer D38T/25PGA; read-out: Ki(Tenofovir-DP)
T3 construct: His6 (C); made in house; host or cells: E. coli XL1 Blue
Method: as §3, §4

WT HIV-1 RT (BH10) [8] = biological target: T1, WT HIV-1 RT (BH10); experiment: Steady-state kinetics of nucleotide incorporation; format: biochemical; details: D38/25PGA for dTTP, D38T/25PGA for dATP
Method: as §3, §4

[9] = biological target: T2, HIV-1 RT M41L/L210W/T215Y; experiment: Steady-state kinetics of nucleotide incorporation; format: biochemical; details: D38/25PGA for dTTP, D38T/25PGA for dATP
Method: as §3, §4

[10] = biological target: T3, HIV-1 RT M41L/L210W/T215Y/R284K; experiment: Steady-state kinetics of nucleotide incorporation; format: biochemical; details: D38/25PGA for dTTP, D38T/25PGA for dATP
Method: as §3, §4

HIV-1 RT R284K = biological target: T4, HIV-1 RT R284K (Human immunodeficiency virus type 1 group M subtype B, UniProt P03366, R883K); experiment: Kinetics of ATP-dependent excision from DNA/DNA template-primers (single turnover); format: biochemical; details: R284K RT 210 nM, 3.2 mM ATP, terminated 26-mer primer on 38-nt DNA template 30 nM
T4 construct: His6 (C); made in house; host or cells: E. coli XL1 Blue
Method: (§5) The primer 25PGA was blocked at its 3´ end with d4TTP using terminal deoxynucleotidyltransferase (Roche), and excess nucleotides were eliminated by repeated passage through a mini Quick Spin column (Roche). The blocked primer was then labeled with [γ-^32P]ATP and T4 polynucleotide kinase and annealed to the DNA template D38, in order to obtain the template-primer D38/25PGA^d4T, used in the excision reactions. […] For this purpose, we preincubated the template-primer D38/^32P]25PGA (4.6 μM) with HIV-1BH10 RT (4 μM) in 65 μl of 50 mM Hepes pH 7.0 buffer, containing 15 mM NaCl, 15 mM magnesium acetate, 130 mM potassium acetate, 1 mM dithiothreitol, and 5% polyethylene glycol for 10 minutes at 37°C. Then, 35 μl of 6 mM AZTTP (diluted in the preincubation buffer) were added and incubated for another 30 minutes at 37°C to ensure that the primer was blocked completely. The RT was inactivated by heating the mixture for 10 minutes at 90°C. After slowly cooling the sample at room temperature, it was passaged several times through a mini Quick Spin column (Roche) to eliminate the free AZTTP. […] The excision of d4T monophosphate (d4TMP) from D38/25PGA^d4T was determined under single turnover conditions, as previously described.

[11] = biological target: T2, HIV-1 RT M41L/L210W/T215Y; format: biochemical; details: M41L/L210W/T215Y RT 210 nM, 3.2 mM ATP, terminated 26-mer primer on 38-nt DNA template 30 nM
Method: as §5

WT HIV-1 RT = biological target: T5, WT HIV-1 RT (Human immunodeficiency virus type 1 group M subtype B, UniProt P03366); format: biochemical
T5 construct: His6 (C); made in house; host or cells: E. coli XL1 Blue
Method: as §5

[12] = biological target: T3, HIV-1 RT M41L/L210W/T215Y/R284K; format: biochemical; details: M41L/L210W/T215Y/R284K RT 210 nM, 3.2 mM ATP, terminated 26-mer primer on 38-nt DNA template 30 nM
Method: as §5

[13] = Human immunodeficiency virus 1, MT4, average ± SD of at least three tests

With `Cc1cn([C@H]2C=C[C@@H](CO)O2)c(=O)[nH]c1=O` [d4T, 2´,3´-didehydro-2´,3´-dideoxythymidine] the “fold increase in IC50 relative to the wild-type HXB2 virus control” value [1] was 0.8, the IC50 [1, 13] was 217 ± 75.5 nM and the IC50 [2] was 276 ± 90.5 nM. The “fold increase in IC50 relative to the wild-type HXB2 virus control” value [3] was 0.5, the IC50 [3, 13] was 130 ± 24.8 nM and the “fold increase in IC50 relative to the wild-type HXB2 virus control” value [4] was 1.0. For the same compound, the IC50 [4, 13] was 287 ± 84.5 nM.
In the case of `CC(Cn1cnc2c(N)ncnc21)OCP(=O)(O)OP(=O)(O)OP(=O)(O)O` (stereo in doubt) [Tenofovir-DP, tenofovir diphosphate], the Ki (WT HIV-1 RT (BH10) [5]) is reported as 3590 ± 260 nM, the Ki [6] is reported as 2630 ± 640 nM and the Ki [7] is reported as 2540 ± 550 nM.
`Nc1ncnc2c1ncn2[C@H]1C[C@H](O)[C@@H](COP(=O)(O)OP(=O)(O)OP(=O)(O)O)O1` [dATP] was tested, and the Km (WT HIV-1 RT (BH10) [8]) was 0.0258 ± 0.0067 µM, the kcat (WT HIV-1 RT (BH10) [8]) was 0.0645 ± 0.0165 s⁻¹ and the Km [9] was 0.0321 ± 0.0096 µM. It also gave a kcat [9] of 0.095 ± 0.0145 s⁻¹, a Km [10] of 0.0159 ± 0.0025 µM and a kcat [10] of 0.1682 ± 0.0245 s⁻¹.
For `Cc1cn([C@H]2C=C[C@@H](COP(=O)(O)O)O2)c(=O)[nH]c1=O` [d4TMP, d4T monophosphate], the “kobs of ATP-dependent excision reaction” value (HIV-1 RT R284K) was 0.00262 ± 0.000142 min⁻¹, the “kobs of ATP-dependent excision reaction” value [11] was 0.0372 ± 0.00158 min⁻¹ and the “kobs of ATP-dependent excision reaction” value (WT HIV-1 RT) was 0.00337 ± 0.000193 min⁻¹. The “kobs of ATP-dependent excision reaction” value [12] was 0.037 ± 0.00229 min⁻¹.
